PubChem BioAssay (NCI)
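The compound was tested at five concentrations on cells cultured in 96-well plates, with a 48-hour exposure period. Definition used: TGI = concentration required for complete inhibition of growth.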

Tests used:
Experiment in all cases: NCI tumour cell line growth inhibition, 48 h
K-562 leukemia = system: K-562 leukemia
OVCAR-5 ovarian = system: OVCAR-5 ovarian
NCI/ADR-RES ovarian = system: NCI/ADR-RES ovarian
SN12C renal = system: SN12C renal
OVCAR-8 ovarian = system: OVCAR-8 ovarian
HT29 colon = system: HT29 colon
MDA-N = system: MDA-N
HOP-92 NSCLC = system: HOP-92 NSCLC
NCI-H23 lung = system: NCI-H23 lung
HCC-2998 colon = system: HCC-2998 colon
A498 renal = system: A498 renal
MDA-MB-435 = system: MDA-MB-435
KM12 colon = system: KM12 colon
ACHN renal = system: ACHN renal
SF-539 CNS = system: SF-539 CNS
RXF 393 renal = system: RXF 393 renal
UACC-257 melanoma = system: UACC-257 melanoma
COLO 205 colon = system: COLO 205 colon
PC-3 prostate = system: PC-3 prostate
U251 CNS = system: U251 CNS
LOX IMVI melanoma = system: LOX IMVI melanoma
SK-OV-3 ovarian = system: SK-OV-3 ovarian
SF-268 CNS = system: SF-268 CNS
HCT-15 colon = system: HCT-15 colon
HCT-116 colon = system: HCT-116 colon
T-47D breast = system: T-47D breast
EKVX NSCLC = system: EKVX NSCLC
HL-60(TB) leukemia = system: HL-60(TB) leukemia
MOLT-4 leukemia = system: MOLT-4 leukemia
SK-MEL-2 melanoma = system: SK-MEL-2 melanoma
SR leukemia = system: SR leukemia
A549 NSCLC = system: A549 NSCLC
UO-31 renal = system: UO-31 renal
IGROV1 ovarian = system: IGROV1 ovarian
UACC-62 melanoma = system: UACC-62 melanoma
BT-549 breast = system: BT-549 breast
MDA-MB-231 breast = system: MDA-MB-231 breast
SNB-75 CNS = system: SNB-75 CNS
SK-MEL-5 melanoma = system: SK-MEL-5 melanoma
SNB-19 CNS = system: SNB-19 CNS
SF-295 CNS = system: SF-295 CNS
NCI-H226 lung = system: NCI-H226 lung
CCRF-CEM leukemia = system: CCRF-CEM leukemia
SK-MEL-28 melanoma = system: SK-MEL-28 melanoma
HS 578T breast = system: HS 578T breast
OVCAR-4 ovarian = system: OVCAR-4 ovarian
OVCAR-3 ovarian = system: OVCAR-3 ovarian
NCI-H460 lung = system: NCI-H460 lung
M14 melanoma = system: M14 melanoma
DU-145 prostate = system: DU-145 prostate
HOP-62 NSCLC = system: HOP-62 NSCLC
TK-10 renal = system: TK-10 renal
MCF7 breast = system: MCF7 breast
SW-620 colon = system: SW-620 colon
MALME-3M melanoma = system: MALME-3M melanoma
NCI-H522 lung = system: NCI-H522 lung
CAKI-1 renal = system: CAKI-1 renal
RPMI-8226 leukemia = system: RPMI-8226 leukemia
786-0 renal = system: 786-0 renal

## CC1=C(SCCO)C(=O)c2ccccc2C1=O
K-562 leukemia
  TGI: > 100 µM
OVCAR-5 ovarian
  TGI: 33.6 µM
NCI/ADR-RES ovarian
  TGI: 31.9 µM
SN12C renal
  TGI: 29.7 µM
OVCAR-8 ovarian
  TGI: 28.6 µM
HT29 colon
  TGI: 38.7 µM
MDA-N
  TGI: 15.6 µM
HOP-92 NSCLC
  TGI: 3.72 µM
NCI-H23 lung
  TGI: 30.4 µM
HCC-2998 colon
  TGI: 30.4 µM
A498 renal
  TGI: 30.6 µM
MDA-MB-435
  TGI: 23.9 µM
KM12 colon
  TGI: 26.8 µM
ACHN renal
  TGI: 13 µM
SF-539 CNS
  TGI: 24.9 µM
RXF 393 renal
  TGI: 26.3 µM
UACC-257 melanoma
  TGI: 25.8 µM
COLO 205 colon
  TGI: 24.1 µM
PC-3 prostate
  TGI: 25.1 µM
U251 CNS
  TGI: 26.1 µM
LOX IMVI melanoma
  TGI: 24.6 µM
SK-OV-3 ovarian
  TGI: 29.6 µM
SF-268 CNS
  TGI: 29.9 µM
HCT-15 colon
  TGI: 25.3 µM
HCT-116 colon
  TGI: 17.4 µM
T-47D breast
  TGI: 20.5 µM
EKVX NSCLC
  TGI: 27.5 µM
HL-60(TB) leukemia
  TGI: > 100 µM
MOLT-4 leukemia
  TGI: > 100 µM
SK-MEL-2 melanoma
  TGI: 24.5 µM
SR leukemia
  TGI: > 100 µM
A549 NSCLC
  TGI: 32.8 µM
UO-31 renal
  TGI: 20.3 µM
IGROV1 ovarian
  TGI: 27.3 µM
UACC-62 melanoma
  TGI: 31.7 µM
BT-549 breast
  TGI: 31.7 µM
MDA-MB-231 breast
  TGI: 27.4 µM
SNB-75 CNS
  TGI: 30.1 µM
SK-MEL-5 melanoma
  TGI: 26.6 µM
SNB-19 CNS
  TGI: 79.6 µM
SF-295 CNS
  TGI: 32.8 µM
NCI-H226 lung
  TGI: 29.1 µM
CCRF-CEM leukemia
  TGI: > 100 µM
SK-MEL-28 melanoma
  TGI: 25.9 µM
HS 578T breast
  TGI: 40.4 µM
OVCAR-4 ovarian
  TGI: 15.3 µM
OVCAR-3 ovarian
  TGI: 15.3 µM
NCI-H460 lung
  TGI: 26.8 µM
M14 melanoma
  TGI: 27.6 µM
DU-145 prostate
  TGI: 29.6 µM
HOP-62 NSCLC
  TGI: 29.4 µM
TK-10 renal
  TGI: 30.4 µM
MCF7 breast
  TGI: 12.6 µM
SW-620 colon
  TGI: 33.1 µM
MALME-3M melanoma
  TGI: 27.3 µM
NCI-H522 lung
  TGI: 14.6 µM
CAKI-1 renal
  TGI: 28.8 µM

## c1ccc(SCCc2ccncc2)cc1
K-562 leukemia
  TGI: > 100 µM
OVCAR-5 ovarian
  TGI: > 100 µM
NCI/ADR-RES ovarian
  TGI: > 100 µM
SN12C renal
  TGI: > 100 µM
OVCAR-8 ovarian
  TGI: > 100 µM
HT29 colon
  TGI: > 100 µM
MDA-N
  TGI: > 100 µM
HOP-92 NSCLC
  TGI: > 100 µM
NCI-H23 lung
  TGI: > 100 µM
HCC-2998 colon
  TGI: > 100 µM
A498 renal
  TGI: > 100 µM
MDA-MB-435
  TGI: > 100 µM
RPMI-8226 leukemia
  TGI: > 100 µM
KM12 colon
  TGI: > 100 µM
ACHN renal
  TGI: > 100 µM
SF-539 CNS
  TGI: > 100 µM
RXF 393 renal
  TGI: > 100 µM
UACC-257 melanoma
  TGI: > 100 µM
COLO 205 colon
  TGI: > 100 µM
PC-3 prostate
  TGI: > 100 µM
U251 CNS
  TGI: > 100 µM
LOX IMVI melanoma
  TGI: > 100 µM
SK-OV-3 ovarian
  TGI: > 100 µM
SF-268 CNS
  TGI: > 100 µM
HCT-15 colon
  TGI: > 100 µM
HCT-116 colon
  TGI: > 100 µM
T-47D breast
  TGI: > 100 µM
EKVX NSCLC
  TGI: > 100 µM
HL-60(TB) leukemia
  TGI: > 100 µM
MOLT-4 leukemia
  TGI: > 100 µM
SK-MEL-2 melanoma
  TGI: > 100 µM
SR leukemia
  TGI: > 100 µM
A549 NSCLC
  TGI: > 100 µM
UO-31 renal
  TGI: > 100 µM
IGROV1 ovarian
  TGI: > 100 µM
UACC-62 melanoma
  TGI: > 100 µM
BT-549 breast
  TGI: > 100 µM
MDA-MB-231 breast
  TGI: > 100 µM
SNB-75 CNS
  TGI: > 100 µM
SK-MEL-5 melanoma
  TGI: > 100 µM
SNB-19 CNS
  TGI: > 100 µM
SF-295 CNS
  TGI: > 100 µM
NCI-H226 lung
  TGI: > 100 µM
CCRF-CEM leukemia
  TGI: > 100 µM
786-0 renal
  TGI: > 100 µM
SK-MEL-28 melanoma
  TGI: > 100 µM
HS 578T breast
  TGI: > 100 µM
OVCAR-4 ovarian
  TGI: > 100 µM
OVCAR-3 ovarian
  TGI: > 100 µM
NCI-H460 lung
  TGI: > 100 µM
M14 melanoma
  TGI: > 100 µM
DU-145 prostate
  TGI: > 100 µM
HOP-62 NSCLC
  TGI: > 100 µM
TK-10 renal
  TGI: > 100 µM
MCF7 breast
  TGI: > 100 µM
SW-620 colon
  TGI: > 100 µM
MALME-3M melanoma
  TGI: > 100 µM
NCI-H522 lung
  TGI: > 100 µM
CAKI-1 renal
  TGI: > 100 µM

## CCOC(=O)C(NC(=O)c1ccccc1)(c1ccc(S(=O)(=O)Nc2onc(C)c2C)cc1)C(F)(F)F (stereo not drawn)
K-562 leukemia
  TGI: > 100 µM
OVCAR-5 ovarian
  TGI: > 100 µM
NCI/ADR-RES ovarian
  TGI: > 100 µM
SN12C renal
  TGI: > 100 µM
OVCAR-8 ovarian
  TGI: > 100 µM
HT29 colon
  TGI: > 100 µM
MDA-N
  TGI: > 100 µM
HOP-92 NSCLC
  TGI: > 100 µM
NCI-H23 lung
  TGI: > 100 µM
HCC-2998 colon
  TGI: > 100 µM
MDA-MB-435
  TGI: > 100 µM
RPMI-8226 leukemia
  TGI: > 100 µM
KM12 colon
  TGI: > 100 µM
ACHN renal
  TGI: > 100 µM
SF-539 CNS
  TGI: > 100 µM
RXF 393 renal
  TGI: > 100 µM
UACC-257 melanoma
  TGI: > 100 µM
COLO 205 colon
  TGI: > 100 µM
PC-3 prostate
  TGI: > 100 µM
U251 CNS
  TGI: > 100 µM
LOX IMVI melanoma
  TGI: > 100 µM
SK-OV-3 ovarian
  TGI: > 100 µM
SF-268 CNS
  TGI: > 100 µM
HCT-15 colon
  TGI: > 100 µM
HCT-116 colon
  TGI: > 100 µM
T-47D breast
  TGI: > 100 µM
EKVX NSCLC
  TGI: > 100 µM
HL-60(TB) leukemia
  TGI: > 100 µM
MOLT-4 leukemia
  TGI: > 100 µM
SK-MEL-2 melanoma
  TGI: > 100 µM
SR leukemia
  TGI: > 100 µM
A549 NSCLC
  TGI: > 100 µM
UO-31 renal
  TGI: > 100 µM
IGROV1 ovarian
  TGI: > 100 µM
UACC-62 melanoma
  TGI: > 100 µM
BT-549 breast
  TGI: > 100 µM
MDA-MB-231 breast
  TGI: > 100 µM
SNB-75 CNS
  TGI: > 100 µM
SK-MEL-5 melanoma
  TGI: > 100 µM
SNB-19 CNS
  TGI: > 100 µM
SF-295 CNS
  TGI: > 100 µM
NCI-H226 lung
  TGI: > 100 µM
CCRF-CEM leukemia
  TGI: > 100 µM
786-0 renal
  TGI: > 100 µM
SK-MEL-28 melanoma
  TGI: > 100 µM
HS 578T breast
  TGI: > 100 µM
OVCAR-4 ovarian
  TGI: > 100 µM
OVCAR-3 ovarian
  TGI: > 100 µM
NCI-H460 lung
  TGI: > 100 µM
M14 melanoma
  TGI: > 100 µM
DU-145 prostate
  TGI: > 100 µM
HOP-62 NSCLC
  TGI: > 100 µM
TK-10 renal
  TGI: > 100 µM
MCF7 breast
  TGI: > 100 µM
SW-620 colon
  TGI: > 100 µM
MALME-3M melanoma
  TGI: > 100 µM
CAKI-1 renal
  TGI: > 100 µM
